In test [1] the target is Sodium-dependent dopamine transporter (Homo sapiens, UniProt Q01959). The experiment in a line: Inhibition of radioligand [125I]RTI-55 binding to human Dopamine transporter in clonal cells.
Test [2] has as its target Sodium-dependent serotonin transporter (Homo sapiens, UniProt P31645). The experiment in a line: Inhibition of [125I]RTI-55 binding to human SERT in clonal cells.

Several values for one entry are separate records, joined by “and”; a condition that tells them apart may be missing. Equal entries are not always repeated.

Sodium-dependent dopamine transporter, sequence (Q01959 whole entry): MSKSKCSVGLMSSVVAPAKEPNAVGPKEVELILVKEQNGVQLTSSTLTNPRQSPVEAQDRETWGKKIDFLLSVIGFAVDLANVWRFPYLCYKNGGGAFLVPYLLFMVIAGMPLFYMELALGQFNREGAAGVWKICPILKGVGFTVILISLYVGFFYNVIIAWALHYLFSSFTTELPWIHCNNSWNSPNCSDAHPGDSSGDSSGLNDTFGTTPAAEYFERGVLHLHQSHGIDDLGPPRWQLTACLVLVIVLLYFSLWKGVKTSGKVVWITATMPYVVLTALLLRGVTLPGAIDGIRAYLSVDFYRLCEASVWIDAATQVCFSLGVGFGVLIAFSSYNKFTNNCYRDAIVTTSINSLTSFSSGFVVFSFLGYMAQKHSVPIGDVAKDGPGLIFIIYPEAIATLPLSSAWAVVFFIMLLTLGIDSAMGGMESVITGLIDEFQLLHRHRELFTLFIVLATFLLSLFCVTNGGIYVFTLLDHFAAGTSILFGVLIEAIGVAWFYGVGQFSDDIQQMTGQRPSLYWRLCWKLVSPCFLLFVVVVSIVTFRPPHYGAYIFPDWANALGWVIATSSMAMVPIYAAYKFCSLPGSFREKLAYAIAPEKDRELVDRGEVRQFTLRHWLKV
Sodium-dependent serotonin transporter, sequence (P31645 whole entry): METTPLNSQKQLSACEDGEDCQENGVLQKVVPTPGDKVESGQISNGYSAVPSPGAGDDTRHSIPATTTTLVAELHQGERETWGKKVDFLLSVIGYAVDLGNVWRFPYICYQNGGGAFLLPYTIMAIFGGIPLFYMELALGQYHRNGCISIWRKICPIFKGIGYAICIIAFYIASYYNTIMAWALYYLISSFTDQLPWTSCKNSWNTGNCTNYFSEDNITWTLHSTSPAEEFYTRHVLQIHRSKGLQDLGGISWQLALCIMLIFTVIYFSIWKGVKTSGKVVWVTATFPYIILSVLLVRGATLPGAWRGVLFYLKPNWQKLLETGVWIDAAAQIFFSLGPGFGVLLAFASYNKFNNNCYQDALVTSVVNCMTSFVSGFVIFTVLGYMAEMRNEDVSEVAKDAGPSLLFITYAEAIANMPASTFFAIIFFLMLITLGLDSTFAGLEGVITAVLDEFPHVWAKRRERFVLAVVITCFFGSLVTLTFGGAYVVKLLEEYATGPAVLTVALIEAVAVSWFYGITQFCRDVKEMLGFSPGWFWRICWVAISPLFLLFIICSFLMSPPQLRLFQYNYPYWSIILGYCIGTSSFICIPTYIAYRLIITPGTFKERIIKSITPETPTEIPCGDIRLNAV

For the compound `Fc1ccc(C(OCCN2CCN(Cc3ccccc3)CC2)c2ccc(F)cc2)cc1`, the Kd amounted to 0.098 µM in test [1] and 0.182 µM in test [2].

Consider `O=C(CCCN1CCN(CCCc2ccccc2)CC1)N(Cc1ccccc1)c1ccccn1`, for which the Kd in test [1] was 0.562 µM; in test [2] it was 1.32 µM. For `COc1ccc(CN(CCCN2CCN(CCCc3ccccc3)CC2)c2ccccn2)cc1`, the equilibrium dissociation constant (Kd) is 0.016 µM in test [1] and 0.059 µM in test [2].

For `O=C(/C=C/c1ccc(Cl)cc1)N1CCN(CCOC(c2ccc(F)cc2)c2ccc(F)cc2)CC1`, the Kd in test [1] amounted to 0.427 µM; in test [2], 0.072 µM. As for `Fc1ccc(C(OCCN2CCN(C/C=C/c3ccccc3)CC2)c2ccc(Cl)cc2)cc1` (stereo unspecified), the Kd amounted to 0.0039 µM in test [1] and 0.191 µM in test [2]. The matching figures for `COc1ccc(/C=C/C(=O)N2CCN(CCOC(c3ccc(F)cc3)c3ccc(F)cc3)CC2)cc1`: 0.49 µM and 0.141 µM. As for `Fc1ccc(C(OCCN2CCN(CCCc3ccc(Cl)cc3)CC2)c2ccc(F)cc2)cc1`, the Kd in test [1] was determined as 0.0081 µM; in test [2] it was 0.155 µM. For `COc1ccc(N(CCN2CCN(CCCc3ccccc3)CC2)Cc2ccccc2)cc1`, the Kd is 0.912 µM in test [1] and 0.257 µM in test [2]. On to `O=C(CCCCN1CCN(CCCc2ccccc2)CC1)N(Cc1ccccc1)c1ccccc1`, for which the Kd turned out to be 0.058 µM in test [1] and 0.204 µM in test [2]. Taken in the same sequence, the figures for `Fc1ccc(CN(CCCN2CCN(CCCc3ccccc3)CC2)c2ccc(F)cc2)cc1` were 0.014 µM and 0.331 µM. For the compound `Fc1ccc(C(OCCN2CCN(C/C=C/c3ccccc3)CC2)c2ccc(F)cc2)cc1`, in test [2], the Kd was 0.954 µM and 0.363 µM.

For `Fc1ccc(C(OCCN2CCN(C/C=C/c3ccccc3)CC2)c2ccc(Cl)cc2Cl)cc1` (stereo unspecified), the Kd worked out at 0.066 µM in test [1] and 0.525 µM in test [2]. `COc1ccc(C(OCCN2CCN(C/C=C/c3ccccc3)CC2)c2ccccc2)cc1` (stereo unspecified): the Kd in test [2] is 0.692 µM. As to `Fc1ccc(C(OCCN2CCN(C/C=C/c3ccc(Cl)cc3)CC2)c2ccc(F)cc2)cc1`, the values for the Kd in test [1] and in test [2] were 0.022 µM and 0.813 µM, respectively. Taken in the same sequence, the figures for `Fc1ccc(CN(CCN2CCN(CCCc3ccccc3)CC2)c2ccc(F)cc2)cc1` were 0.052 µM and 0.269 µM. Regarding `COc1cccc(C(OCCN2CCN(C/C=C/c3ccccc3)CC2)c2cccc(Br)c2)c1` (stereo unspecified), the values for the dissociation constant (Kd) in test [1] and in test [2] were 0.132 µM and 0.741 µM, respectively. The matching figures for `Fc1ccc(CCCN2CCN(CCOC(c3ccccc3)c3ccccc3)CC2)cc1`: 0.04 µM and 1.82 µM. The matching figures for `Brc1ccc(CN(CCN2CCN(CCCc3ccccc3)CC2)c2ccc(Br)cc2)cc1`: 0.977 µM and 1.62 µM. Turning to `CN(CCc1ccccc1)CCN1CCN(CCCc2ccccc2)CC1`, the equilibrium dissociation constant (Kd) in test [1] turned out to be 0.55 µM; in test [2], 2.63 µM. For the compound `c1ccc(CCCN2CCN(CCN(Cc3ccccc3)c3ccccn3)CC2)cc1`, the equilibrium dissociation constant (Kd) amounted to 0.091 µM in test [1] and 0.525 µM in test [2]. With `Fc1ccc(/C=C/CN2CCN(CCOC(c3ccc(F)cc3)c3ccc(F)cc3)CC2)cc1`, the Kd is 0.0039 µM in test [1] and 0.229 µM in test [2].

Turning to `Fc1ccc(C(OCCN2CCN(C/C=C/Cc3ccccc3)CC2)c2ccc(F)cc2)cc1`, the Kd in test [1] was 0.0051 µM; in test [2], 0.072 µM.

Take `Fc1ccc(C(OCCN2CCN(C/C=C/c3ccccc3)CC2)c2ccccc2)cc1` (stereo unspecified): the Kd in test [1] amounted to 0.033 µM; in test [2] it was 0.214 µM. On to `c1ccc(CCCN2CCN(CCCN(Cc3ccccc3)c3ccccc3)CC2)cc1`, for which the dissociation constant (Kd) in test [1] is 0.01 µM; in test [2] it was 0.759 µM and 0.758 µM.

Turning to `c1ccc(CCCN2CCN(CCCCCN(Cc3ccccc3)c3ccccc3)CC2)cc1`, the results for the equilibrium dissociation constant (Kd) in test [1] and in test [2] were 0.032 µM and 0.234 µM, respectively.

With `O=C(CCCN1CCN(CCCc2ccccc2)CC1)N(Cc1ccccc1)c1ccccc1`, the Kd in test [1] stood at 0.028 µM; in test [2], 0.525 µM. In the case of `COc1ccc(CN(CCN2CCN(CCCc3ccccc3)CC2)c2ccccn2)cc1`, the equilibrium dissociation constant (Kd) in test [1] came out at 0.219 µM; in test [2] it was 0.162 µM. For `C(=C\c1ccccc1)/CN1CCN(CCN(Cc2ccccc2)c2ccccn2)CC1`, the Kd in test [1] was 1 µM; in test [2], 0.676 µM. For the compound `Fc1ccc(C(OCCN2CCN(CCCc3ccccc3)CC2)c2ccccc2)cc1` (stereo unspecified), the figures for the Kd in test [1] and in test [2] were 0.02 µM and 0.617 µM, respectively. In the case of `COc1ccc(/C=C/CN2CCN(CCOC(c3ccc(F)cc3)c3ccc(F)cc3)CC2)cc1` [1-{2-[Bis-(4-fluoro-phenyl)-methoxy]-ethyl}-4-[(E)-3-(4-methoxy-phenyl)-allyl]-piperazine], the equilibrium dissociation constant (Kd) turned out to be 0.065 µM in test [1] and 0.372 µM in test [2]. For `Cc1ccc(CN(CCN2CCN(CCCc3ccccc3)CC2)c2ccccc2)cc1`, the values for the Kd in test [1] and in test [2] were 0.427 µM and 0.813 µM, respectively.

Take `O=C(CN1CCN(CCCc2ccccc2)CC1)N(Cc1ccccc1)c1ccccc1`: the Kd turned out to be 1.07 µM in test [1] and 2.88 µM in test [2]. In the case of `c1ccc(CCCN2CCN(CCCN(Cc3ccccc3)c3ccccn3)CC2)cc1`, the equilibrium dissociation constant (Kd) in test [1] was found to be 0.107 µM; in test [2], 2.29 µM. On to `Cc1ccc(C(OCCN2CCN(C/C=C/c3ccccc3)CC2)c2ccccc2)cc1` (stereo unspecified), for which the results for the Kd in test [1] and in test [2] were 0.112 µM and 1.12 µM, respectively. Regarding `Fc1ccc(CCCN2CCN(CCOC(c3ccccc3)c3ccc(F)cc3)CC2)cc1` (stereo unspecified), the Kd in test [1] is 0.031 µM; in test [2], 0.468 µM. As to `Fc1ccc(CCCN2CCN(CCOC(c3ccc(F)cc3)c3ccc(F)cc3)CC2)cc1`, the Kd turned out to be 0.0056 µM in test [1] and 0.363 µM in test [2]. As for `Fc1ccc(CN(CCN2CCN(CCCc3ccccc3)CC2)c2ccccn2)cc1`, the Kd in test [1] turned out to be 0.065 µM; in test [2] it was 0.229 µM. The matching figures for `Fc1ccc(/C=C/CN2CCN(CCOC(c3ccccc3)c3ccc(F)cc3)CC2)cc1` (stereo unspecified): 0.023 µM and 0.2 µM. Take `C(=C\c1ccccc1)/CN1CCN(CCN(Cc2ccccc2)c2ccccc2)CC1`: the dissociation constant (Kd) was 0.447 µM in test [1] and 0.603 µM in test [2]. With `COc1ccc(OC)c(/C=C/C(=O)N2CCN(CCOC(c3ccc(F)cc3)c3ccc(F)cc3)CC2)c1`, the Kd in test [1] amounted to 0.562 µM; in test [2] it was 0.204 µM. Consider `Cc1ccc(/C=C/C(=O)N2CCN(CCOC(c3ccc(F)cc3)c3ccc(F)cc3)CC2)cc1`, for which the Kd in test [1] amounted to 0.794 µM; in test [2] it was 0.195 µM.

In the case of `COc1ccc(CN(CCN2CCN(C/C=C/c3ccccc3)CC2)c2ccccn2)cc1`, the Kd came out at 2.19 µM in test [1] and 0.229 µM in test [2]. The matching figures for `Fc1ccc(/C=C/CN2CCN(CCOC(c3ccccc3)c3ccccc3)CC2)cc1`: 0.016 µM and 1.32 µM. As to `Cc1ccc(/C=C/CN2CCN(CCOC(c3ccc(F)cc3)c3ccc(F)cc3)CC2)cc1`, the Kd in test [1] worked out at 0.048 µM; in test [2], 0.661 µM. Regarding `COc1ccc(OC)c(/C=C/CN2CCN(CCOC(c3ccc(F)cc3)c3ccc(F)cc3)CC2)c1`, the Kd was found to be 0.0038 µM in test [1] and 0.182 µM in test [2]. `O=C(/C=C/c1ccccc1Cl)N1CCN(CCOC(c2ccc(F)cc2)c2ccc(F)cc2)CC1`: the figures for the Kd in test [1] and in test [2] were 0.724 µM and 0.17 µM, respectively. The matching figures for `Clc1ccc(C(OCCN2CCN(C/C=C/c3ccccc3)CC2)c2ccc(Cl)cc2)cc1`: 0.038 µM and 0.331 µM. The matching figures for `O=C(/C=C/c1c(Cl)cccc1Cl)N1CCN(CCOC(c2ccc(F)cc2)c2ccc(F)cc2)CC1`: 1.51 µM and 0.209 µM. For the compound `c1ccc(CCCN2CCN(CCCCN(Cc3ccccc3)c3ccccc3)CC2)cc1`, the equilibrium dissociation constant (Kd) in test [1] turned out to be 0.014 µM; in test [2], 0.132 µM. For the compound `Fc1ccc(CN(CCCN2CCN(CCCc3ccccc3)CC2)c2ccccn2)cc1`, the Kd in test [1] was determined as 0.011 µM; in test [2], 0.282 µM.

Turning to `COc1ccc(N(CCN2CCN(C/C=C/c3ccccc3)CC2)Cc2ccccc2)cc1`, in test [2], the Kd amounted to 0.282 µM. Consider `c1ccc(CCCN2CCN(CCN(Cc3ccccc3)c3ccccc3)CC2)cc1`, for which the results for the Kd in test [1] and in test [2] were 0.219 µM and 1.2 µM, respectively.

Values taken from BindingDB's records for doi:10.1021/jm011007+ (University of Perugia, 2002).
